Data set [1] is described as follows: Brain free fraction in vitro. Type of data set: in vitro ADME. The settings on record: rodent brain in vitro. The text has this:
(§1) Certain embodiments of the invention provide for compound, compounds or compositions thereof to traverse the blood-brain barrier. […] Brain penetration may be assessed by evaluating brain/plasma ratio (B/P) as measured through in vivo pharmacokinetic studies in rodents and determining free fraction in rodent brain in vitro. […] Without being limited to theory, it is believed that compounds with higher brain/plasma partition ratios may be more pharmacologically active against neurological disorders. Other methods for assessing brain penetration are known to persons of ordinary skill in the art. See, for example, Liu, X. et al., J. Pharmacol. Exp. Therap., 325:349-56, 2008. […]. In this method, the passive membrane permeability (Papp) and the P-gp (P-glycoprotein) substrate efflux potential are determined using a MDCKII-MDR1 cell line as an in vitro model of the effective permeability of a compound through the BBB.
Brain free fraction is a predictive marker for assessing potential for potential therapeutics in the CNS. See, Read K. D.; Braggio S. Assessing brain free fraction in early drug discovery. Expert. Opin. Drug. Metab. Toxicol. 2010, 6, 337-344.
Determination of brain free fraction is known such that those of skill in the art could determine the brain free fraction for additional compounds disclosed herein. See, Srinivas, Nithya et al. “Clinical Pharmacokinetics and Pharmacodynamics of Drugs in the Central Nervous System.” Clinical pharmacokinetics vol. 57, 9 (2018): 1059-1074. doi:10.1007/s40262-018-0632-y.

Data set [2] can be described thus: Brain/plasma ratio from in vivo pharmacokinetic studies. The settings on record: rodent, brain and plasma; in vivo pharmacokinetic studies in rodents; read-out: B/P ratio (brain/plasma ratio).
Source text: as §1

The target in another data set is RIPK1 (Homo sapiens (Human), UniProt Q13546). Kind of data set: RIPK1 ADP-Glo kinase biochemical assay. The settings on record: statement in words.
Sequence of RIPK1 (Q13546 whole entry, species assumed): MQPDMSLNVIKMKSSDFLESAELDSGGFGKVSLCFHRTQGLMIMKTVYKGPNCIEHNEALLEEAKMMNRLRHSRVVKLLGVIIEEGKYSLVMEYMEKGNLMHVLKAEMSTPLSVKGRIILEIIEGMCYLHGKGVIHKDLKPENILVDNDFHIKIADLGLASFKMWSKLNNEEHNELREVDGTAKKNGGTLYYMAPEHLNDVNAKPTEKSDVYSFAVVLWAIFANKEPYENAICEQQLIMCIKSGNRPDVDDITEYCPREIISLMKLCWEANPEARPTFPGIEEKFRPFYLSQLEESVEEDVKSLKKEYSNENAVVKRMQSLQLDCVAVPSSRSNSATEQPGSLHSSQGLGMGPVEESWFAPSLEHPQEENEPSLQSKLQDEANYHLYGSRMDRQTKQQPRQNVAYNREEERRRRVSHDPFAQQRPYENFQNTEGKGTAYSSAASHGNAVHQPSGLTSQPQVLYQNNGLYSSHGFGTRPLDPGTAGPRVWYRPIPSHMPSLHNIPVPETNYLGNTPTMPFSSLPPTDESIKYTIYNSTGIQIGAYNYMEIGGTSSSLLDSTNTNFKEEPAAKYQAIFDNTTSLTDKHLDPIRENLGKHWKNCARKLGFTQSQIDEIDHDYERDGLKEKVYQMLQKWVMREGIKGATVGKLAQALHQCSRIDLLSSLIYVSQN

The structures appear in SMILES notation.

Description for RIPK1: In this example, compounds of the disclosure were evaluated using a biochemical assay using the ADP-Glo™ technology.
ADP-Glo™ (Promega, Madison, Wis., USA) reagents were thawed at ambient temperature. Kinase Detection Reagent was prepared by mixing kinase detection buffer with the lyophilized kinase detection substrate.
A 3 ml 2× working stock volume of Reaction Kinase Buffer was made containing a final concentration of 100 μM DTT and 4 mM MnCl2.
Components of RIPK1 enzyme (Rigel Pharmaceuticals, South San Francisco, Calif., USA) were thawed on ice. Diluted RIPK1 was prepared in 1× Kinase Reaction Buffer (diluted from 2× buffer) to 31 ng/well.
1.0 ul of diluted compound was added to a 384 well plate in duplicate. […] The final reaction volume was 5.0 μl.
The plate was quickly centrifuged and the reaction was incubated at 30° C. for 30 minutes. Adding 5 μl of ADP-Glo™ terminated the reaction. The plate was quickly centrifuged and the reaction was incubated at room temperature for 40 minutes. Kinase Detection Reagent was then added and incubated at room temperature for 30 minutes. The relative light unit (RLU) of kinase reaction was determined by luminescent (Luminescence 0.1s) using a Wallac Victor2 Luminometer (PerkinElmer, Waltham, Mass., USA).

As to `CN1C(=O)[C@@H](NC(=O)c2cc(Oc3ccccc3)ccn2)COc2ccc(C#CC(O)C(F)(F)F)nc21` (stereo partly drawn) [Compound I-33, N-((3S)-5-methyl-4-oxo-7-(4,4,4-trifluoro-3-hydroxybut-1-yn-1-yl)-2,3,4,5-tetrahydropyrido[3,2-b][1,4]oxazepin-3-yl)-4-phenoxypicolinamide], in data set [1], the fraction unbound (as a rule, the share of the substance not bound to proteins or other matrix) turned out to be 0.0057.
In turn, `CN1C(=O)[C@@H](NC(=O)c2cc(Oc3ccccc3)ccn2)COc2ccc(C#CC(C)(C)O)nc21` [Compound I-18, (S)—N-(7-(3-hydroxy-3-methylbut-1-yn-1-yl)-5-methyl-4-oxo-2,3,4,5-tetrahydropyrido[3,2b][1,4]oxazepin-3-yl)-4-phenoxypicolinamide] registered a fraction unbound in data set [1] of 0.027.
Same read-out and setting: to `CN1C(=O)[C@@H](NC(=O)c2cc(Oc3cccc(F)c3)ccn2)COc2ccc(C#CC(C)(C)O)nc21` [Compound I-21, (S)-4-(3-fluorophenoxy)-N-(7-(3-hydroxy-3-methylbut-1-yn-1-yl)-5-methyl-4-oxo-2,3,4,5-tetrahydropyrido[3,2-b][1,4]oxazepin-3-yl)picolinamide] belongs 0.0219.
On to `CN1C(=O)[C@@H](NC(=O)c2cc(Oc3ccccc3)ccn2)CCc2ccc(C#CC3COC3)nc21` [Compound I-58, (S)—N-(9-Methyl-2-(oxetan-3-ylethynyl)-8-oxo-6,7,8,9-tetrahydro-5H-pyrido[2,3-b]azepin-7-yl)-4-phenoxypicolinamide], for which the Kp in data set [2] was 0.44. In data set [1], the fraction unbound worked out at 0.0184.
Compound `CN1C(=O)[C@@H](NC(=O)c2cc(Oc3ccccc3)ccn2)COc2ccc(C#CC(C)(N)C(F)(F)F)nc21` (stereo partly drawn) [Compound I-46, N-((3S)-7-(3-Amino-4,4,4-trifluoro-3-methylbut-1-yn-1-yl)-5-methyl-4-oxo-2,3,4,5-tetrahydropyrido[3,2-b][1,4]oxazepin-3-yl)-4-phenoxypicolinamide] returned a fraction unbound in data set [1] of 0.0089.
The same measure, in the same setting: to `CN1C(=O)[C@@H](NC(=O)c2cc(Oc3ccccc3)ccn2)CCc2ccc(C#CC(C)(O)C(F)(F)F)nc21` (stereo partly drawn) [Compound I-56, N-((7S)-9-Methyl-8-oxo-2-(4,4,4-trifluoro-3-hydroxy-3-methylbut-1-yn-1-yl)-6,7,8,9-tetrahydro-5H-pyrido[2,3-b]azepin-7-yl)-4-phenoxypicolinamide] belongs 0.0093.
As to `CN1C(=O)[C@@H](NC(=O)c2cc(Oc3ccccc3)ccn2)COc2cc(Br)cnc21` [Compound I-6, (S)—N-(8-Bromo-5-methyl-4-oxo-2,3,4,5-tetrahydropyrido[3,2-b][1,4]oxazepin-3-yl)-4-phenoxypicolinamide], the RIP1K inhibitory activity entry at RIPK1 was “exhibiting RIP1K inhibitory activity”.
Turning to `CN1C(=O)[C@@H](NC(=O)c2cc(Oc3ccccc3)ccn2)COc2ccc(C#CC3COC3)nc21` [Compound I-44, (S)—N-(5-methyl-7-(oxetan-3-ylethynyl)-4-oxo-2,3,4,5-tetrahydropyrido[3,2-b][1,4]oxazepin-3-yl)-4-phenoxypicolinamide], the Kp in data set [2] was 1.6. Also, the fraction unbound in data set [1] was 0.017.

The values are drawn from patent publication US11584758B2, “RIP1K inhibitors” (Rigel Pharmaceuticals, Inc., priority 2020, dated 2023).
